This is an account of results in US5780472A, “Piperazine derivatives and methods for the preparation thereof and compositions containing the same” (Samjin Pharmaceuticazl Co., Ltd., priority 1995, dated 1998).

The subject of series [1] is 5 kinds of human solid cancer cell lines. The series can be described thus: In vitro antitumor activity against 5 human solid cancer cell lines compared with cisplatin (SRB assay). Format: cell-based. To be noted: in words. As to the method:
Antitumor activities of the compounds of present invention were tested. Antitumor activities of compounds of the present invention were tested in vitro against 5 kinds of human tumor cell lines and 2 kinds of leukemia tumor cell lines. The method of in vitro test is as follows.
B. Method of test(SRB Assay Method)
a. Human solid tumor cell lines, […](non-small lung cell), SKMEL-2(melanoma), HCT-15(colon), SKOV-3(ovarian), XF-498(CNS) were cultured at 37° C., in 5% CO2 incubater using the RPMI 1640 media containing 10% FBS, while they were transfer-cultured successively once or twice per week. Cell cultures were dissolved into the solution of 0.25% trypsin and 3 mM CDTA PBS(-) and then cells were separated from media which the cells were sticked on.
b. 5×10^3 -2×10^4 cells were added into each well of 96-well plate and cultured in 5% CO2 incubater, at 37° C., for 24 hours.
c. Each sample drugs was dissolved in a small quantity of DMSO, and diluted to concentrations prescribed in experiment with media, and then the final concentration of DMSO was controlled below 0.5%.
d. A medium of each well cultured for 24 hours as above b., was removed by aspiration. 200 μl of drug samples prepared in c. was added into each well and the wells were cultured for 48 hours. Tz(time zero) plates were collected at the point of time drugs were added.
e. After Tz plates and plates were treated with cell fixing by TCA of SRB assay method, staining of 0.4% SRB solution, washing with 1% acetic acid, OD values were measured at 520 nm, following elution of dye with 10 mM Tris solution.
e. If T≥Tz, cellular response function was calculated with 100×(T-Tz)/(C-Tz), and if T<Tz, with 100×(T-Tz)/Tz.
A general note: The SRB assay estimates cell density from bound dye.

Series [2] concerns mouse leukemia P388 cells. Kind of series: In vivo antitumor effects against mouse leukemia P388 cells. To be noted: for T/C (%) etc.: days 1, 5, 9, median survival time; for antitumor effect in P388 mice: in words. As to the method:
1) Leukemia P388 cells being transfer-cultured succesively in DBA/2 mouse, were grafted i.p. into each mouse of a group comprising 8 mice of 6 week old BDFI mouse as the dose of 1×10^6 cells/0.1 ml.
2) Sample drugs were dissolved in PBS or suspended in 0.5% Tween 80, and then injected into abdominal cavity of mouse at each prescribed concentration on days 1, 5, 9, respectively.
3) With observation every day, survival times of tested mice were measured. Antitumor activities was determined in such a manner that the increasing ratio(T/C %) of average survival days of drug-treated groups compared with the control group was calculated using the mean survival times of each tested groups.
* Experimental Conditions for Mouse P388
(§1) Animal: BDFI mouse (8 mice/group)
Inoculum size: 10^6 cells/mouse
(§2) Treatment time: days 1, 5, 9
(§3) Parameter: median survival time

Series [3] relates to P388 (mouse lymphoid neoplasma cell). The series can be described thus: In vitro antitumor effects against animal leukemia cells (dye exclusion assay), P388. It is filed as cell-based. To be noted: 50% cell growth inhibition, 37° C., trypan blue; for ED50: 48 hours, 2880 min; for IC50: Mus musculus, P388, 48 h, read-out: ED50 (the source's name). On the procedure: P388 (mouse lymphoid neoplasma cell)
(§4) B. Method of Experiment(Dye Exclusion Assay)
(§5) 2) Sample drugs diluted with log dose were added into the cells, and it were cultured at 37° C., for 48 hours, in […] incubater, and then viable cell number was measured, Viable cell number was measured with dye exclusion test using trypan blue.

The subject of series [4] is L1210 (mouse leukemia cell). Kind of series: In vitro antitumor effects against animal leukemia cells (dye exclusion assay), L1210. Format: cell-based. To be noted: 50% cell growth inhibition, 37° C., trypan blue; for IC50: Mus musculus, L1210, 48 h, read-out: ED50 (the source's name); for ED50: 48 hours, hydrochloride, 2880 min. On the procedure:
L1210(mouse leukemia cell)
as §4, §5

The test system of series [5] is L1210 and P388 mouse cancer cells. The series can be described thus: In vitro antitumor activity against L1210 and P388 compared with mitomycin C (dye exclusion assay). It is filed as cell-based. The following applies: in words. On the procedure:
as §4
1) L-1210 and P388 cells that were cultured in RPMI 1640 media containing 10% FBS were regulated as the cell concentration of 1×10^6 cells/ml.
as §5
3) The concentration of sample compounds of 50% cell growth inhibition compared with standard group was determined as IC50.

A further series relates to B16 Melanoma. The series can be described thus: In vivo antitumor activities against mouse solid tumor, B16 melanoma. To be noted: for T/C (%) Etc.: days 1, 5, 9, median survival time; for antitumor activities in B16 mouse melanoma: in words. As to the method:
BDF1 mouse was used in experiment while being successively transfer cultured in C57BL/6 mice by s.c.
1) After 1 g of tumor was added into cold balanced salt solution up to be 10 ml, it was homogenized (10:1,brei).
2) 0.5 ml Brei of the above 1) were grafted into each BDFI mouse by i.p.
3) Median survival time was measured, and the activity was determined in such a manner that if T/C was over 125%, it presented moderate activity, while if it is over 150%, it had significant activity.
* Experimental Conditions for Mouse B16 Melanoma.
as §1
Inoculum size: 10^5 cells/mouse
as §2, §3

The test system of a further series is ICR mice. The series can be described thus: Acute toxicity test (LD50), Litchfield-Wilcoxon method. Format: in vivo, mouse. On the set-up: unit not given here. To be noted: male ICR mice, 14 days.

≈ marks a conversion by molar mass, not a printed value. Where a name gives a salt, the structure may show the parent alone. Bounds are passed on as bounds.

Turning to `CCc1cc(NC(=O)N2CCN(c3ccccc3OC)CC2)c(OC)nc1C` [Example 1, 1-[(5-ethyl-2-methoxy-6-methylpyridin-3-yl)aminocarbonyl]-4-(2-methoxyphenyl)piperazine], the “antitumor activities compared with cisplatin” value in series [1] was “superior antitumor activities to those of cisplatin”. The “T/C (%) etc.” value in series [2] (50 mg/kg i.p.) is reported as 109.1%; in series [2] (100 mg/kg i.p.), 134.6%. The “antitumor effect in P388 mice” value in series [2] is recorded as “significant antitumor effect”. The same molecule came in with an ED50 in series [3] of 0.6 mg/L (≈ 1.56 µM). For the same molecule, the IC50 in series [4] came out at 1.6 mg/L (≈ 4.16 µM).

For the molecule `CCc1cc(NC(=O)N2CCN(c3cc(OC)cc(OC)c3)CC2)c(OC)nc1C` [Example 6, 1-[(5-ethyl-2-methoxy-6-methylpyridin-3-yl)aminocarbonyl]-4-(3,5-dimethoxyphenyl)piperazine], the “antitumor activities compared with cisplatin” value in series [1] was “superior antitumor activities to those of cisplatin”. Further, the “T/C (%) etc.” value was 133.3% in series [2] (50 mg/kg i.p.) and 183.3% in series [2] (100 mg/kg i.p.). The “antitumor effect in P388 mice” value in series [2] is listed as “significant antitumor effect”. Besides, the IC50 amounted to 0.3 mg/L (≈ 0.724 µM) in series [3] and 0.6 mg/L (≈ 1.45 µM) in series [4]. Besides, the “antitumor activities compared with mitomycin C” value in series [5] is “same or more excellent antitumor activities”. Also, the “T/C (%) Etc.” value in the series on B16 Melanoma (Dose 50 (unit not given) i.p.) is 127.3%; with B16 Melanoma (Dose 100 (unit not given) i.p.) it was 124.2%; in the series on B16 Melanoma (Dose 200 (unit not given) i.p.), 139.4%. Moreover, the “antitumor activities in B16 mouse melanoma” value in the series on B16 Melanoma is “significant antitumor activities”. Moreover, the LD50 is listed as 248.5 in the series with ICR mice (i.p.) and more than 622 with ICR mice (p.o.).

`CCc1cc(NC(=O)N2CCN(c3cccc(Cl)c3)CC2)c(OC)nc1C` [Example 16, 1-[(5-ethyl-2-methoxy-6-methylpyridin-3-yl)aminocarbonyl]-4-(3-chlorophenyl)piperazine]: the “T/C (%) etc.” value in series [2] (50 mg/kg i.p.) amounted to 113.6%; in series [2] (100 mg/kg i.p.), 131.8%. Also, the “antitumor effect in P388 mice” value in series [2] is given as “significant antitumor effect”. Further, the IC50 was 1.6 mg/L (≈ 4.11 µM) in series [3] and 1.8 mg/L (≈ 4.63 µM) in series [4]. The “T/C (%) Etc.” value in the series on B16 Melanoma (Dose 50 (unit not given) i.p.) is given as 115.2%; in the series with B16 Melanoma (Dose 100 (unit not given) i.p.), 127.3%; in the series with B16 Melanoma (Dose 200 (unit not given) i.p.) it was 118.2%. Also, the “antitumor activities in B16 mouse melanoma” value in the series on B16 Melanoma is reported as “significant antitumor activities”.

Take `CCc1cc(NC(=O)N2CCN(c3cc(C)cc(C)c3)CC2)c(OC)nc1C` [Example 29, 1-[(5-ethyl-2-methoxy-6-methylpyrdin-3-yl)aminocarbonyl]-4-(3,5-dimethylphenyl)piperazine]: the “antitumor activities compared with cisplatin” value in series [1] was “superior antitumor activities to those of cisplatin”. In addition, the “T/C (%) etc.” value in series [2] (50 mg/kg i.p.) was 136.4%; in series [2] (100 mg/kg i.p.) it was 190.9%. Further, the “antitumor effect in P388 mice” value in series [2] was “significant antitumor effect”. Moreover, the IC50 was determined as 0.5 mg/L (≈ 1.31 µM) in series [3] and 0.4 mg/L (≈ 1.05 µM) in series [4]. Also, in series [5], the “antitumor activities compared with mitomycin C” value was “same or more excellent antitumor activities”.

`CCc1cc(NC(=O)N2CCN(c3cc(Cl)ccc3OC)CC2)c(OC)nc1C` [Example 49, 1-[(5-ethyl-2-methoxy-6-methylpyridin-3-yl)aminocarbonyl]-4-(5-chloro-2-methioxyphenyl)piperazine]: the “antitumor activities compared with cisplatin” value in series [1] is listed as “superior antitumor activities to those of cisplatin”. Besides, the results for the IC50 in series [3] and in series [4] were 0.6 mg/L (≈ 1.43 µM) and 1.3 mg/L (≈ 3.1 µM), respectively. The “antitumor activities compared with mitomycin C” value in series [5] was “same or more excellent antitumor activities”.

Turning to `COc1ccccc1N1CCN(C(=O)Nc2cc(C)c(C)nc2OC)CC1` [Example 108], the “antitumor activities compared with cisplatin” value in series [1] is listed as “superior antitumor activities to those of cisplatin”. Further, the IC50 in series [3] was determined as 0.9 mg/L (≈ 2.43 µM); in series [4] it was 0.8 mg/L (≈ 2.16 µM). Further, the “antitumor activities compared with mitomycin C” value in series [5] is listed as “same or more excellent antitumor activities”. Also, the LD50 was > 2,000 with ICR mice (i.p.) and > 3,110 in the series with ICR mice (p.o.).

Take `COc1cc(OC)cc(N2CCN(C(=O)Nc3cc(C)c(C)nc3OC)CC2)c1` [Example 118, 1-[(5,6-dimethyl-2-methoxypyridin-3-yl)aminocarbonyl]-4-(3,5-dimethoxyphenyl)piperazine]: the “antitumor activities compared with cisplatin” value in series [1] is listed as “superior antitumor activities to those of cisplatin”. The IC50 in series [3] and in series [4] was 0.06 mg/L (≈ 0.15 µM) each time. Further, the “antitumor activities compared with mitomycin C” value in series [5] is listed as “same or more excellent antitumor activities”. Further, the LD50 with ICR mice (i.p.) amounted to 182.8; in the series with ICR mice (p.o.), 571.8.

In the case of `COc1nc(C)c(C)cc1NC(=O)N1CCN(c2cc(C)cc(C)c2)CC1` [Example 120, 1-[(5,6-dimethyl-2-methoxypyridin-3-yl)aminocarbonyl]-4-(3,5-xylyl)piperazine], the “antitumor activities compared with cisplatin” value in series [1] is “superior antitumor activities to those of cisplatin”. The figures for the IC50 in series [3] and in series [4] were 0.1 mg/L (≈ 0.271 µM) and 0.3 mg/L (≈ 0.814 µM), respectively. Moreover, in series [5], the “antitumor activities compared with mitomycin C” value is reported as “same or more excellent antitumor activities”.

`COc1ccccc1N1CCN(C(=S)Nc2cc(C)c(C)nc2OC)CC1` [Example 128]: the “antitumor activities compared with cisplatin” value in series [1] is “superior antitumor activities to those of cisplatin”. Moreover, the IC50 came to 0.2 mg/L (≈ 0.517 µM) in series [3] and 0.5 mg/L (≈ 1.29 µM) in series [4]. The “antitumor activities compared with mitomycin C” value in series [5] is listed as “same or more excellent antitumor activities”.

As for `CCc1cc(NC(=O)N2CCN(c3ccccc3OC)CC2)c(OC)nc1C` [Example 148, 1-[(5-ethyl-2-methoxy-6-methylpyridin-3-yl)aminocarbonyl]-4-[(2-methoxyphenyl)piperazine-2-yl]piperazine salt of hydrochloride], the ED50 in series [3] (hydrochloride) turned out to be 1.3 mg/L; in series [4] it was 1.5 mg/L. Besides, the “antitumor activities compared with mitomycin C” value in series [5] is “same or more excellent antitumor activities”. The molecule also had an LD50 with ICR mice (i.p.) of 425.3.

Regarding `CCc1cc(NC(=O)N2CCN(c3cccc(Cl)c3)CC2)c(OC)nc1C` [Example 149, 1-[(5-ethyl-2-methoxy-6-methylpyridin-3-yl)aminocarbonyl]-4-(3-chlorophenyl)piperazine salt of hydrochloride], in series [1], the “antitumor activities compared with cisplatin” value is given as “superior antitumor activities to those of cisplatin”. Further, the “antitumor activities compared with mitomycin C” value in series [5] is listed as “same or more excellent antitumor activities”. This molecule also came in with an ED50 in series [4] of 0.9 mg/L. The molecule further had an LD50 in the series with ICR mice (i.p.) of 410.5.
